Assay results: BigSolDB 2.1

CCC[C@H](N)C(=O)O
solubility (mole fraction)
Conditions	298.15 K	303.15 K	308.15 K	313.15 K	318.15 K	323.15 K
in acetone	0.000515	0.000664	0.000828	0.00106	0.00135	0.00161
in acetonitrile	5.93e-05	6.88e-05	7.54e-05	8.02e-05	8.53e-05	9.69e-05
in ethanol	0.000171	0.000186	0.000201	0.000227	0.000244	0.000283
in ethyl acetate	0.000253	0.000301	0.000349	0.000449	0.0005	0.00056
in isopentanol	0.000726	0.000875	0.00103	0.00122	0.00151	0.00183
in isopropanol	0.00119	0.0015	0.00173	0.00192	0.00215	0.00249
in methanol	0.00104	0.00109	0.00113	0.0012	0.00126	0.00129
in methyl acetate	7.37e-05	9.03e-05	0.00012	0.00015	0.000176	0.000216
in n-butanol	0.000962	0.00122	0.0014	0.00157	0.00175	0.0019
in n-pentanol	0.000508	0.000567	0.000639	0.000744	0.000818	0.000872
in n-propanol	0.000859	0.00115	0.0015	0.00189	0.00231	0.00278
in water	0.0135	0.0136	0.0137	0.0138	0.0139	0.0141
